From ChEMBL document CHEMBL5137057, “Small Carbohydrate Derivatives as Potent Antibiofilm Agents” (J Med Chem, 2022)

Assays:
[1] = target: Type 1 fimbrin D-mannose specific adhesin (Escherichia coli K-12) (UniProt P08191); assay: Inhibition of Escherichia coli UTI89 FimH by hemagglutination assay
[2] = tested on: Mycolicibacterium smegmatis; assay: Antimicrobial activity against Mycobacterium smegmatis MC2 155 assessed as planktonic growth inhibition measured after 48 hrs by microplate reader analysis; type: functional
[3] = tested on: Mycolicibacterium smegmatis; assay: Antibiofilm activity against Mycobacterium smegmatis MC2 155 assessed as […] measured after 48 hrs by crystal violet staining based analysis; type: functional
[4] = Binding affinity to Lactobacillus reuteri Glucosyltransferase assessed as dissociation constant by SPR analysis; set-up: species or system Limosilactobacillus reuteri
[5] = target: Type 1 fimbrin D-mannose specific adhesin (Escherichia coli K-12) (UniProt P08191); assay: Relative inhibitory potency, ratio of methyl alpha-D-mannose Kd to compound Kd for binding affinity to C-terminal His-tagged truncated Escherichia coli FimH by SPR analysis; settings: K12
[6] = target: T1, PA-I galactophilic lectin (Pseudomonas aeruginosa (strain ATCC 15692 / PAO1 / 1C / PRS 101 / LMG12228), UniProt Q05097); assay: Binding affinity to Pseudomonas aeruginosa LecA assessed as dissociation constant by isothermal titration calorimetry
T1 sequence (Q05097 whole entry): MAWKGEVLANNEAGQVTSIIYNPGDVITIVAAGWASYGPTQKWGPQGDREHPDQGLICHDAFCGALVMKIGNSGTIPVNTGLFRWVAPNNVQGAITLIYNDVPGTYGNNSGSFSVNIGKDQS

[7] = tested on: Escherichia coli; assay: Antibiofilm activity against Escherichia coli UTI89; type: functional, organism-based
[8] = tested on: Staphylococcus aureus; assay: Potentiation of vancomycin-induced antibacterial activity against methicillin resistant Staphylococcus aureus Mu50 in presence of vancomycin; type: functional, organism-based
[9] = tested on: Pseudomonas aeruginosa; assay: Antibiofilm activity against Pseudomonas aeruginosa PA14 measured after 48 hrs by confocal laser scanning microscope analysis relative to control; type: functional
[10] = target: T1, PA-I galactophilic lectin; assay: Inhibition of Pseudomonas aeruginosa LecA incubated for 4 to 6 hrs by fluorescence polarization based competitive binding analysis
[11] = target: T2, Fucose-binding lectin PA-IIL (Pseudomonas aeruginosa (strain ATCC 15692 / DSM 22644 / CIP 104116 / JCM14847 / LMG 12228 / 1C / PRS 101 / PAO1), UniProt Q9HYN5); assay: Binding affinity to Pseudomonas aeruginosa PAO1 LecB assessed as dissociation constant by isothermal titration calorimetry
Target sequence in this assay (Q9HYN5 whole entry): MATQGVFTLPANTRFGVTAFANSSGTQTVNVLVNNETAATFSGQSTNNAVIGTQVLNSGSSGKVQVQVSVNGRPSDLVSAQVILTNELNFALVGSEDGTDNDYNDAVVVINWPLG

[12] = target: T2, Fucose-binding lectin PA-IIL; assay: Inhibition of Pseudomonas aeruginosa PA14 LecB incubated for 22 to 24 hrs by fluorescence polarization based competitive binding analysis
Target sequence in this assay (Q9HYN5 1-115): as the sequence (Q9HYN5 whole entry) above

[13] = target: T2, Fucose-binding lectin PA-IIL; assay: Binding affinity to Pseudomonas aeruginosa PA14 LecB assessed as dissociation constant by isothermal titration calorimetry
Target sequence in this assay (Q9HYN5 1-115): as the sequence (Q9HYN5 whole entry) above

[14] = target: Type 1 fimbrin D-mannose specific adhesin (Escherichia coli K-12) (UniProt P08191); assay: Relative inhibitory potency, ratio of methyl alpha-D-mannose Kd to compound Kd for binding affinity to Escherichia coli FimH by ELISA assay; settings: K12

Type 1 fimbrin D-mannose specific adhesin (Escherichia coli K-12), sequence (P08191 whole entry, the tested form may be a part): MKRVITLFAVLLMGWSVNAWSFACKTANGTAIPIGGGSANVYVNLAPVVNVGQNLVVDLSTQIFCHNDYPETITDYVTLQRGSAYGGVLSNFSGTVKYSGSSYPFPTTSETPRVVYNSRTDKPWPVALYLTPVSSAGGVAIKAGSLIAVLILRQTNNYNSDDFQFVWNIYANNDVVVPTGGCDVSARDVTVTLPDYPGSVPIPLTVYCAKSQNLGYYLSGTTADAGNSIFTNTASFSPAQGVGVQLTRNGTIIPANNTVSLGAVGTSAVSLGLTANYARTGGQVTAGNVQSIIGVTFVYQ

Cc1cc(-c2ccc3ccn(C(=O)Nc4cccnc4)c(=O)c3c2)ccc1O[C@H]1O[C@H](CO)[C@@H](O)[C@H](O)[C@@H]1O
EC>90 [1]: 62 nM

OC[C@H]1O[C@H](O[C@H]2S[C@H](CO)[C@@H](O)[C@H](O)[C@H]2O)[C@H](O)[C@@H](O)[C@@H]1O
MIC [2]: > 500 µM
MBIC [3]: 100 µM

C[C@H]1[C@H](Oc2ccc(/C=N/NC(=O)C3CCN(C(=O)OC(C)(C)C)CC3)cc2)O[C@H](CO)[C@@H](O)[C@@H]1O
Kd [4]: 1600 µM

CO[C@H]1O[C@H](CO)[C@@H](O)[C@H](O)[C@@H]1O
Ratio [5]: 1

O=c1[nH]ccc2ccc(-c3ccc(O[C@H]4O[C@H](CO)[C@@H](O)[C@H](O)[C@@H]4O)cc3)cc12
EC>90 [1]: 100 nM

O=C(O)/C=C(\C[C@@H]1O[C@H](CO)[C@H](O)[C@H](O)[C@H]1O)c1ccccc1
Kd [6]: 37 µM

OC[C@H]1O[C@H](O[C@@H]2C[C@@H](O)[C@H](O)[C@@H](CO)O2)[C@H](O)[C@@H](O)[C@@H]1O
MIC [2]: > 500 µM
MBIC [3]: 50 µM

OC[C@H]1O[C@H](O[C@H]2O[C@H](CO)[C@@H](O)[C@H](O)[C@H]2O)[C@@H](O)[C@@H](O)[C@@H]1O
MIC [2]: > 500 µM
MBIC [3]: >500 µM

OC[C@H]1O[C@H](O[C@H]2O[C@H](CO)[C@@H](O)[C@H](O)[C@H]2F)[C@H](O)[C@@H](O)[C@@H]1O
MIC [2]: > 500 µM
MBIC [3]: 100 µM

Cc1cc(-c2ccc3cc[nH]c(=O)c3c2)ccc1O[C@H]1O[C@H](CO)[C@@H](O)[C@H](O)[C@@H]1O
IC50 [7]: 0.13 µM
EC>90 [1]: 31 nM

O=C(NC[C@]1(O)CO[C@H](CNC(=O)c2ccccc2Cl)[C@H]1O)c1ccccc1
EC50 [8]: 7.98 µM

CNC(=O)c1cc(C(=O)NC)cc(-c2ccc(O[C@H]3O[C@H](CO)[C@@H](O)[C@H](O)[C@@H]3O)c(C(F)(F)F)c2)c1
EC>90 [1]: 8 nM

C[C@@H]1O[C@H](CNS(=O)(=O)c2cccs2)[C@@H](O)[C@H](O)[C@@H]1O
Activity [9]: 80%

Cc1cc(-c2ccc3ccn(CC(=O)Nc4cccnc4)c(=O)c3c2)ccc1O[C@H]1O[C@H](CO)[C@@H](O)[C@H](O)[C@@H]1O
IC50 [7]: 0.018 µM
EC>90 [1]: 1 nM

O=C(NC[C@@H]1O[C@H](CNC(=O)c2ccccc2Cl)[C@@H](O)[C@H]1O)c1ccccc1
EC50 [8]: 3.71 µM

O[C@H]1[C@@H](O)[C@@H](C2CO2)O[C@@H](Oc2ccccc2)[C@@H]1O (stereo partly drawn)
IC50 [10]: 64 µM

CNC(=O)c1cc(C(=O)NC)cc(-c2ccc(O[C@H]3O[C@H](CO)[C@@H](O)[C@H](O)[C@@H]3O)c(C)c2)c1
EC>90 [1]: 16 nM

CNC(=O)c1cccc(-c2ccc(O[C@H]3O[C@H](CO)[C@@H](O)[C@H](O)[C@@H]3O)c(C(F)(F)F)c2)c1
EC>90 [1]: 32 nM

[N-]=[N+]=NC[C@H]1O[C@H](O[C@H]2O[C@H](CO)[C@@H](O)[C@H](O)[C@H]2O)[C@H](O)[C@@H](O)[C@@H]1O
MIC [2]: > 500 µM
MBIC [3]: 50 µM

CNC(=O)c1cccc(-c2ccc(O[C@H]3O[C@H](CO)[C@@H](O)[C@H](O)[C@@H]3O)cc2)c1
EC>90 [1]: 500 nM

Cc1cc(C)c(S(=O)(=O)NC[C@H]2O[C@@H](C)[C@@H](O)[C@@H](O)[C@@H]2O)c(C)c1
Kd [11]: 1.27 µM
Activity [9]: 80%
IC50 [12]: 0.34 µM
Kd [13]: 0.31 µM

O[C@H]1[C@@H](O)[C@H](C2CO2)O[C@@H](Oc2ccccc2)[C@@H]1O (single isomer, unassigned)
IC50 [10]: > 3000 µM

CCOc1c(Nc2ccc(O[C@H]3O[C@H](CO)[C@@H](O)[C@H](O)[C@@H]3O)cc2)c(=O)c1=O
Ratio [14]: 1800
